{"source": "patent US3976763A", "about": "“Chlorpromazine assay” (Hoffmann-La Roche Inc., priority 1975, dated 1976)", "key": {"[1]": {"tested_on": "antibody in the antiserum of rabbit immunized by the CPZ-BSA immunogen", "assay": "Radioimmunoassay specificity: inhibition of 3H-CPZ binding to antibody", "settings": "for concentration required to produce a 50% inhibition of 3H-chlorpromazine-antibody binding, relative to chlorpromazine: multiple of the CPZ concentration; for binding by the antibody (in words): competition with labeled CPZ", "method": "The antiserum of EXAMPLE 2 as used for the radioimmunoassay was diluted with normal rabbit serum which was diluted with phosphate-buffered saline, pH 7.4, at 1:10 dilution. To determine the antibody titre of antiserum, 0.1 ml. of various dilutions of the antiserum was incubated in an assay tube (10 × 75 mm) with 320 pg of ^3 H-CPZ approximately 7,000 dpm, at 4°C. overnight. The volume was adjusted to 0.5 ml. with phosphate-buffered salie, pH 7.4 which is the optimal pH for the assay. The antibody bound CPZ was separated from free CPZ by the addition of saturated ammonium sulfate which was adjusted to pH 7.4 with ammonium hydroxide as described by Farr, J. Infect. Dis. 103, 239 (1958). After two washings with 50% saturated ammonium sulfate, the precipitate was dissolved in 0.5 ml. of water. The content of the tube was transferred to a counting vial and the tube was then washed four times with 3 ml. of Riaflour. The 12 ml. washings were all collected in the vial. The radioactivity was then counted with a Beckman liquid scintillation counter. Thedilution of the antiserum chosen for further studies were 1:7,000.\nAppropriate volume of phosphate-buffered saline, pH 7.4 was added to all the tubes containing 0.1 ml. of the antiserum to make a final incubation volume of 0.5 ml. To the tubes were added various quantities ranging from 100 ng. to 10 pg. (10 1) of CPZ, its derivatives, serotonin and dopamine. After a 15 minute preincubation, 10 l. of ^3 H-CPZ was added. The tubes were then incubated overnight at 4°C. followed by precipitation with ammonium sulfate.\nBackground and non-specific protein binding of ^3 H-CPZ were determined by excluding the antiserum from the incubation mixture. The counts representing the non-specific binding were then subtracted from all samples.\nThe specificity of the antibody in the antiserum of rabbit immunized by the CPZ-BSA immunogen was determined by incubating the antiserum with a number of CPz derivatives or the biologenic amines in the presence of labeled CPZ. […] CPZ substituted at C6, C7, or C8 with hydroxy group was not bound by the antibody to the same extent as CPZ. In order to obtain a 50% inhibition of ^3 H-CPZ-antibody complex formation, these hydroxylated derivatives of CPZ required concentrations which were 5-10 times that of CPZ. […] The 7hydroxy derivatives of Nor1 -CPZ or Nor2 CPZ likewise were poorly bound by the antibody. Another metabolic product which can be formed from CPZ is CPZ-N-oxide. […] Promazine, the dechlorinated derivative required about 8 times the concentration of CPZ to produce a 50% displacement of the labeled CPZ from the antibody."}, "[2]": {"assay": "Disposition of CPZ in rats: brain level by radioimmunoassay", "assay_type": "in vivo, Male Sprague-Dawley rats", "settings": "rat"}, "[3]": {"assay": "Disposition of CPZ in rats: plasma level by radioimmunoassay", "assay_type": "in vivo, Male Sprague-Dawley rats", "settings": "iv, rat, 10 mg/kg CPZ hydrochloride intravenously, after initial rapid decline", "method": "To determine the plasma concentration of CPZ, aliquots of plasma from animals which received CPZ were diluted with normal rat plasma. To the assay tubes containing antiserum, phosphate-buffered saline, pH 7.4, ^3 H-CPZ and 10 l of unknown samples were added, and incubated at 4°C. overnight. Free CPZ was separated from the antibody bound CPZ by ammonium sulfate precipitation.\nMale Sprague-Dawley rats weighing 210-240 g. were injected intravenously with 10 mg/kg of CPZ hydrochloride. In one group of 6 rats, 0.1 ml. of blood samples were taken from the tail into a heparinized capillary tube at varying time intervals following the injection. The plasma was separated by centrifugation and frozen until assayed. Other 48 rats were killed by decapitation at the same intervals as above, and the brain was removed, frozen on dry ice and then kept in a deep freezer at -80°C. until assayed.\nThe radioimmunoassay procedure of Example 3 was applied to the determination of CPZ and some minor metabolites in rat plasma and brain following intravenous administration of CPZ hydrochloride."}}, "data": [{"smiles": "CN(C)CCCN1c2ccc(O)cc2Sc2ccc(Cl)cc21", "note": "[7-hydroxychlorpromazine]", "values": [{"measurement": "concentration required to produce a 50% inhibition of 3H-chlorpromazine-antibody binding, relative to chlorpromazine", "setting": "[1]", "result": "5-10 times"}]}, {"smiles": "CN(C)CCCN1c2cc(O)ccc2Sc2ccc(Cl)cc21", "note": "[8-hydroxychlorpromazine]", "values": [{"measurement": "concentration required to produce a 50% inhibition of 3H-chlorpromazine-antibody binding, relative to chlorpromazine", "setting": "[1]", "result": "5-10 times"}]}, {"smiles": "CN(C)CCCN1c2ccccc2Sc2ccc(Cl)cc21", "note": "[CPZ, Chlorpromazine]", "values": [{"measurement": "time to peak brain level of CPZ and metabolites", "setting": "[2]; 10 mg/kg CPZ hydrochloride intravenously", "result": "Five"}, {"measurement": "persistence of peak brain level", "setting": "[2]; in vivo, iv, 10 mg/kg", "result": 30, "unit": "min"}, {"measurement": "concentration producing a 50% inhibition of binding of 3H-CPZ to the antibody", "setting": "[1]; 320 pg 3H-CPZ, antiserum 1:7,000, 0.5 ml, pH 7.4, 4°C overnight", "result": 118, "unit": "pg"}, {"measurement": "half-life", "setting": "[3]", "result": "~4", "unit": "h"}]}, {"smiles": "C[N+](C)([O-])CCCN1c2ccccc2Sc2ccc(Cl)cc21", "note": "[CPZ-N-oxide]", "values": [{"measurement": "binding by the antibody (in words)", "setting": "[1]", "result": "not bound to the antibody to any appreciable extent"}]}, {"smiles": "CN(C)CCCN1c2ccccc2[S+]([O-])c2ccc(Cl)cc21", "note": "(stereo not drawn) [chlorpromazine sulfoxide]", "values": [{"measurement": "binding by the antibody (in words)", "setting": "[1]", "result": "not bound significantly"}, {"measurement": "binding by the antibody (in words)", "setting": "[1]; listed as CPZ-sulfoxide", "result": "not recognized by the antibody unless the concentrations were high"}]}, {"smiles": "CNCCCN1c2ccccc2Sc2ccc(Cl)cc21", "note": "[nor1 -chlorpromazine]", "values": [{"measurement": "binding by the antibody (in words)", "setting": "[1]", "result": "not bound significantly"}, {"measurement": "binding by the antibody (in words)", "setting": "[1]; listed as Nor1 -CPZ", "result": "bound by the antibody to a much lesser extent"}]}, {"smiles": "NCCCN1c2ccccc2Sc2ccc(Cl)cc21", "note": "[nor2 -chlorpromazine]", "values": [{"measurement": "binding by the antibody (in words)", "setting": "[1]", "result": "not bound significantly"}, {"measurement": "binding by the antibody (in words)", "setting": "[1]; listed as Nor2 -CPZ", "result": "failed to recognize the compound unless the concentrations were extremely high"}]}, {"smiles": "CN(C)CCCN1c2ccccc2Sc2ccccc21", "note": "[promazine]", "values": [{"measurement": "concentration required to produce a 50% inhibition of 3H-chlorpromazine-antibody binding, relative to chlorpromazine", "setting": "[1]", "result": "5-10 times"}, {"measurement": "concentration required to produce a 50% inhibition of 3H-chlorpromazine-antibody binding, relative to chlorpromazine", "setting": "[1]; listed as Promazine", "result": "about 8 times"}]}]}
